These results are taken from patent US20160031796A1, “ANTIMUSCARINIC COMPOUND HAVING A LOW CONTENT OF IMPURITIES” (Dipharma Francis S.r.l., priority 2014, published 2016).

Where a name gives a salt, the structure may show the parent alone.

For data set [1] the following is noted: Fesoterodine fumarate obtained as disclosed in EP 2 251 318 (prior art); cited from earlier work.
The nature of data set [2]: stability studies of Fesoterodine fumarate samples under various temperature and humidity conditions, HPLC analysis. The data set is classed as physicochemical. An excerpt: Various samples of Fesoterodine fumarate salt of formula (I) have been taken from a batch of product, obtained using the process of the present invention, having a HPLC purity exceeding 99.8% and a content of the impurities of formulas (II), (III), (IV), (V), (VI) or (VII) of less than 0.10%, calculated as HPLC Area %, and completely free of impurities of formula (VIII) and (IX). Some of the samples taken were also micronized to reduce the particle size, both the samples directly taken from the sample batch and the micronized samples have been subjected to stability studies under various temperature and humidity conditions for up to 90 days.
An example of the conditions used in the stability studies were 40° C. with 75% relative humidity and 25° C. with 60% relative humidity.

Consider `CC(C)C(=O)Oc1ccc(CO)cc1[C@H](CCN(C(C)C)C(C)C)c1ccccc1` [Fesoterodine fumarate, (R)-2-(3-diisopropylamino-1-phenylpropyl)-4-(hydroxymethyl)phenol isobutyrate], for which, in data set [1], the “impurity of formula (VI) generated over time” value is given as more than 1%. Besides, the “formation of impurities of formula (VIII) and/or (IX)” value in data set [2] (HPLC analysis, any of the conditions used, up to 90 days, e.g. 40° C./75% RH and 25° C./60% RH) is reported as “has not shown the formation”. For the same molecule, the “increase in the content of impurities of formula (VI), (VII), (VIII) or (IX) over time” value in data set [2] (after 90 days under various temperature and humidity conditions) is “did not show any increase”. The “stability of micronized sample on storage” value in data set [2] (micronized, maintained for 3 months at 4° C.) is given as “completely unaltered”. Moreover, the “impurities content of formula (VI) and/or (VII)” value in data set [2] (stability studies up to 90 days, e.g. 40° C. with 75% relative humidity and 25° C. with 60% relative humidity, batch samples and micronized samples) is on record as “less than 0.10 % (HPLC Area %)”.
